Columns and labels:
[1] = system: U2OS; assay: cell viability relative to DMSO; higher = less toxic; details: 72 h
[2] = system: Calu-3; assay: as above; details: 72 h
[3] = system: HepG2; assay: as above; details: 72 h
[4] = system: Caco-2; assay: as above; details: 72 h
[5] = system: Vero E6; assay: as above; details: 72 h
[6] = system: U2OS; assay: drug sensitivity score (DSS) for viability; higher = more toxic; extreme values may be limits of the assay; details: 72 h
[7] = system: Calu-3; assay: as above; details: 72 h
[8] = system: HepG2; assay: as above; details: 72 h
[9] = system: Caco-2; assay: as above; details: 72 h
[10] = system: Vero E6; assay: as above; details: 72 h
[11] = system: A549-ACE2 infected with SARS-CoV-2; assay: SARS-CoV-2 infection rate relative to DMSO; higher = more infection; details: 24 h
[12] = system: A549-ACE2 infected with SARS-CoV-2; assay: morphology score (similarity to uninfected cells); higher = more like uninfected cells; details: 24 h
[13] = system: A549-ACE2 infected with SARS-CoV-2; assay: cell count relative to DMSO; higher = less toxic; details: 24 h
[14] = system: U2OS; assay: relative viability EC50 (midpoint between 100% and the lowest measured viability); higher = less toxic; details: 72 h
[15] = system: Calu-3; assay: as above; details: 72 h
[16] = system: HepG2; assay: as above; details: 72 h
[17] = system: Caco-2; assay: as above; details: 72 h
[18] = system: Vero E6; assay: as above; details: 72 h
[19] = system: A549-ACE2; assay: drug-induced phospholipidosis relative to tamoxifen; higher = more phospholipidosis
[20] = system: A549-ACE2; assay: phospholipidosis EC50; higher = less potent phospholipidosis inducer

What does the source list for `Clc1ccc2c(c1)N=C(N1CCNCC1)c1ccccc1N2` [desmethylclozapine]?
cell viability ([1]; 1 nM): 106%; cell viability ([1]; 10 nM): 103%; cell viability ([1]; 100 nM): 100%; cell viability ([1]; 1000 nM): 102%; cell viability ([1]; 10000 nM): 97.6%; cell viability ([2]; 1 nM): 104%; cell viability ([2]; 10 nM): 114%; cell viability ([2]; 100 nM): 104%; cell viability ([2]; 1000 nM): 116%; cell viability ([2]; 10000 nM): 91.8%; cell viability ([3]; 1 nM): 97.3%; cell viability ([3]; 10 nM): 105%; cell viability ([3]; 100 nM): 96.8%; cell viability ([3]; 1000 nM): 104%; cell viability ([3]; 10000 nM): 87.7%; cell viability ([4]; 1 nM): 88%; cell viability ([4]; 10 nM): 94.2%; cell viability ([4]; 100 nM): 92.9%; cell viability ([4]; 1000 nM): 98.5%; cell viability ([4]; 10000 nM): 99.1%; cell viability ([5]; 1 nM): 103%; cell viability ([5]; 10 nM): 107%; cell viability ([5]; 100 nM): 94.2%; cell viability ([5]; 1000 nM): 102%; cell viability ([5]; 10000 nM): 93%; drug sensitivity score [6]: 0; drug sensitivity score [7]: 0; drug sensitivity score [8]: 0; drug sensitivity score [9]: 0; drug sensitivity score [10]: 0; SARS-CoV-2 infection rate ([11]; 0.3 µM): 96%; SARS-CoV-2 infection rate ([11]; 3 µM): 62%; SARS-CoV-2 infection rate ([11]; 10 µM): 28%; SARS-CoV-2 infection rate ([11]; 30 µM): 13%; morphology score ([12]; 0.3 µM): 0.09; morphology score ([12]; 3 µM): 0.63; morphology score ([12]; 10 µM): 0.76; morphology score ([12]; 30 µM): 0.73; cell count ([13]; 0.3 µM): 100%; cell count ([13]; 3 µM): 112%; cell count ([13]; 10 µM): 115%; cell count ([13]; 30 µM): 121%; relative viability EC50 [14]: > 10 µM; relative viability EC50 [15]: > 10 µM; relative viability EC50 [16]: > 10 µM; relative viability EC50 [17]: > 10 µM; relative viability EC50 [18]: > 10 µM; drug-induced phospholipidosis ([19]; 0.3 µM, 24 h): 3.47%; drug-induced phospholipidosis ([19]; 0.3 µM, 48 h): 4.09%; drug-induced phospholipidosis ([19]; 0.3 µM, 72 h): 4.5%; drug-induced phospholipidosis ([19]; 0.833333 µM, 24 h): 2.91%; drug-induced phospholipidosis ([19]; 0.833333 µM, 48 h): 3.86%; drug-induced phospholipidosis ([19]; 0.833333 µM, 72 h): 2.24%; drug-induced phospholipidosis ([19]; 3.33333 µM, 24 h): 27%; drug-induced phospholipidosis ([19]; 3.33333 µM, 48 h): 21.2%; drug-induced phospholipidosis ([19]; 3.33333 µM, 72 h): 18.3%; drug-induced phospholipidosis ([19]; 6.66667 µM, 24 h): 53.9%; drug-induced phospholipidosis ([19]; 6.66667 µM, 48 h): 55.4%; drug-induced phospholipidosis ([19]; 6.66667 µM, 72 h): 49.2%; drug-induced phospholipidosis ([19]; 10 µM, 24 h): 65.2%; drug-induced phospholipidosis ([19]; 10 µM, 48 h): 70.7%; drug-induced phospholipidosis ([19]; 10 µM, 72 h): 76.1%; drug-induced phospholipidosis ([19]; 30 µM, 24 h): 91.3%; drug-induced phospholipidosis ([19]; 30 µM, 48 h): 95.8%; drug-induced phospholipidosis ([19]; 30 µM, 72 h): 116%; phospholipidosis EC50 ([20]; 24 h): 6.54 µM; phospholipidosis EC50 ([20]; 48 h): 6.43 µM; phospholipidosis EC50 ([20]; 72 h): 8.34 µM

Which results are given for `Oc1ccc2c(c1)CC[C@H](c1ccccc1)[C@@H]2c1ccc(OCCN2CCCC2)cc1` [lasofoxifene]?
cell viability ([1]; 1 nM): 105%; cell viability ([1]; 10 nM): 99.3%; cell viability ([1]; 100 nM): 102%; cell viability ([1]; 1000 nM): 95%; cell viability ([1]; 10000 nM): 69.3%; cell viability ([2]; 1 nM): 88.7%; cell viability ([2]; 10 nM): 96.6%; cell viability ([2]; 100 nM): 97.6%; cell viability ([2]; 1000 nM): 95.9%; cell viability ([2]; 10000 nM): 3.8%; cell viability ([3]; 1 nM): 93.4%; cell viability ([3]; 10 nM): 97.3%; cell viability ([3]; 100 nM): 106%; cell viability ([3]; 1000 nM): 93.8%; cell viability ([3]; 10000 nM): 27.6%; cell viability ([4]; 1 nM): 101%; cell viability ([4]; 10 nM): 106%; cell viability ([4]; 100 nM): 97.5%; cell viability ([4]; 1000 nM): 100%; cell viability ([4]; 10000 nM): 60.1%; cell viability ([5]; 1 nM): 99.5%; cell viability ([5]; 10 nM): 103%; cell viability ([5]; 100 nM): 103%; cell viability ([5]; 1000 nM): 102%; cell viability ([5]; 10000 nM): 61.2%; drug sensitivity score [6]: 2.2; drug sensitivity score [7]: 5.9; drug sensitivity score [8]: 5; drug sensitivity score [9]: 2; drug sensitivity score [10]: 1.8; SARS-CoV-2 infection rate ([11]; 0.1 µM): 98%; SARS-CoV-2 infection rate ([11]; 0.3 µM): 95%; SARS-CoV-2 infection rate ([11]; 1 µM): 78%; SARS-CoV-2 infection rate ([11]; 3 µM): 40%; morphology score ([12]; 0.1 µM): 0.1; morphology score ([12]; 0.3 µM): 0.07; morphology score ([12]; 1 µM): 0.48; morphology score ([12]; 3 µM): 0.72; cell count ([13]; 0.1 µM): 105%; cell count ([13]; 0.3 µM): 102%; cell count ([13]; 1 µM): 106%; cell count ([13]; 3 µM): 120%; relative viability EC50 [15]: 2.84 µM; relative viability EC50 [16]: 2.46 µM; drug-induced phospholipidosis ([19]; 0.3 µM, 24 h): 8.45%; drug-induced phospholipidosis ([19]; 0.3 µM, 48 h): 7.62%; drug-induced phospholipidosis ([19]; 0.3 µM, 72 h): 6.02%; drug-induced phospholipidosis ([19]; 0.833333 µM, 24 h): 22%; drug-induced phospholipidosis ([19]; 0.833333 µM, 48 h): 12.5%; drug-induced phospholipidosis ([19]; 0.833333 µM, 72 h): 12%; drug-induced phospholipidosis ([19]; 3.33333 µM, 24 h): 81.6%; drug-induced phospholipidosis ([19]; 3.33333 µM, 48 h): 79.3%; drug-induced phospholipidosis ([19]; 3.33333 µM, 72 h): 69%; drug-induced phospholipidosis ([19]; 6.66667 µM, 24 h): 102%; drug-induced phospholipidosis ([19]; 6.66667 µM, 48 h): 91.7%; drug-induced phospholipidosis ([19]; 6.66667 µM, 72 h): 83.8%; drug-induced phospholipidosis ([19]; 10 µM, 24 h): 112%; drug-induced phospholipidosis ([19]; 10 µM, 48 h): 119%; drug-induced phospholipidosis ([19]; 10 µM, 72 h): 120%; phospholipidosis EC50 ([20]; 24 h): 2.32 µM; phospholipidosis EC50 ([20]; 48 h): 2.82 µM; phospholipidosis EC50 ([20]; 72 h): 3 µM
